The NIST ThermoML archive (doi:10.1016/j.jct.2016.05.011)
Numbers after ± are expanded uncertainties.

What was measured:
[1] = Liquid; for mass density: 293.15 K, 101.33 kPa, Vibrating tube method; for Normal boiling temperature: Ebulliometric method (Recirculating still)
[2] = refractive index (Na D-line) (dimensionless); conditions: 293.15 K; 101.33 kPa; Liquid; Standard Abbe refractometry

| mass density [1] [kg/m3] | Normal boiling temperature [1] [°C] | refractive index [2] | Compound |
| --- | --- | --- | --- |
| 791.1 ± 1 | 64.41 ± 0.3 | 1.3283 ± 0.0004 | CO [methanol] |
| 782.1 ± 1 | 81.44 ± 0.3 | 1.3439 ± 0.0004 | CC#N [acetonitrile] |
